Reference: PubChem BioAssay AID540268 (Broad Institute, 2011)

Experiment: growth inhibition of yeast carrying parasite Hsp90, dose response, anti-malarial Hsp90 inhibitor project, ATP luminescence, 48 h, cherry-picked samples (AID 540268)
Conditions: yeast expressing the parasite Hsp90, ATP luminescence

SMILES | AC50 [µM]
CN1CCN(C(=O)c2cc(COc3c(F)cccc3F)on2)CC1c1ccccc1 (stereo unspecified) | 0.43
CC1=C/C(=N\OS(=O)(=O)c2ccccc2)C(C(C)C)=CC1=O | 0.827
C=CCn1c(O)c(C2=c3ccccc3=NC2=O)c2ccccc21 | 0.844
CC1CCN(C(CC(=O)c2ccccc2)C(=O)c2ccccc2)CC1 (stereo unspecified) | 3.28
O=C(Nc1ccccc1N1CCOCC1)c1ccc([N+](=O)[O-])o1 | 4.41
CCCOc1ccc2ccccc2c1/C=C1\SC(=O)NC1=O | 7.76
CCOC(=O)/C(=C\c1cccnc1)C(=O)c1cc(C(C)=O)c(Nc2ccccc2)s1 | 3.93
CC(=NNC(=S)N1CC2CCC(CC2)C1)c1nccs1 | 25.7
Cc1ccc(-n2c(Cl)c(Cl)nc(Cl)c2=O)cc1 | 1.2
COC(=O)C1CCN(C2CC(=O)N(c3cc(C)cc(C)c3)C2=O)CC1 (stereo unspecified) | 7.68
O=C1C=C(c2cccs2)C[C@H](c2ccccc2)[C@H]1n1nnc([N+](=O)[O-])n1 | 11.8
COc1ccc(/C=C2/CCC(CN3CCOCC3)C2=O)cc1 (stereo unspecified) | 0.751
Cc1cc(N=Nc2ccccc2C(=O)O)c(C)c(C)c1O | 4.79
O=C1C=CC(=O)N1N(c1ccccc1)c1ccccc1 | 3.38
CCCCCCC(=O)N(O)C1CC(=O)N(c2ccc(Cl)cc2)C1=O (stereo unspecified) | 1.65
Oc1c(C(Nc2ccccn2)c2cccnc2)cc(Cl)c2cccnc12 (stereo unspecified) | 8.09
C[C@@]12C(=O)Nc3ccc(Br)cc3C(=O)N1[C@H]1c3ccccc3OC[C@@H]1[C@@H]2c1ccccc1 | 0.404
CCN1CCCC1CN(Cc1cc2ccc(C)cc2[nH]c1=O)C(=S)Nc1ccc(F)cc1 (stereo unspecified) | 3.2
CCN(CC)c1ccc(/C=C2/SC(=O)N(C(C)C)C2=O)o1 | 13.5
O=C(Nc1nnc(-c2ccc(F)cc2)o1)c1cc(Cl)sc1Cl | 2.43
O=[N+]([O-])/C=C/c1c(Cl)cccc1Cl | 0.457
